Data: US20050171216A1, “Germicidal compositions containing phthalaldehyde mixtures and methods of using such compositions for disinfection or sterilization” (priority 2004, published 2005)

Legend:
[1] = tested on: Mycobacterium terrae bacteria; assay: bacterial suspension test (killing of at least 1×10^6/mL bacteria); format: cell-based; conditions: for Log Reductions/mL: 20° C.; for Germicidal Efficacy: summary Table 14
Protocol: The bacterial suspension test that was employed is described in Section VII.
The solutions were prepared by adding the appropriate amounts of the germicidal compounds to an aqueous solution. Unless otherwise mentioned all concentrations reported herein are expressed in (w/v) %. The pH of the solution was not adjusted. The tests were conducted at a temperature of about 20° C. (room temperature). The results are presented in terms of log reductions/mL. It is understood that these examples, as well as the other examples herein, are to be construed as merely illustrative, and not limiting.
In this test method, 9 mL of the germicide to be tested is placed in a tube, put into a water bath and allowed to come to the desired temperature. One mL of the test organism, including at least 7 logs/mL of Mycobacterium terrae bacteria, is added to the 9 mL of the germicide to be tested. […] It will be appreciated by those skilled in the art that other concentrations may be utilized by proper dilution and accounting.
At appropriate time intervals, 1 mL aliquots of the germicide-cell suspension were removed and added directly into 9 mL of a 1% glycine solution (neutralizer) and mixed thoroughly to neutralize the germicide in the transferred suspension. The glycine solution was prepared from solid glycine, which is available from VWR Scientific Products, among others. The above-identified 10 mL neutralized solution was then poured through a membrane filter having an average pore size of 0.45 micrometers. The filter was then rinsed twice with at least 150 mL of the 1% glycine solution per rinse. The filter was then placed on an agar plate and incubated for twenty-one days at 37° C. In the above procedure, if dilution was needed, then the 1 mL germicidal-cell suspension was diluted in 99 mL of a phosphate buffer before addition to the 9 mL of the 1% glycine solution. The phosphate buffer was DiLu-LoK™ Butterfields Phosphate Buffer, available from Hardy Diagnostics, of Santa Maria, Calif.
The surviving colonies are then counted. The data is plotted as S/So vs. time. So is the initial count of the bacteria in the above 10 mL solution which is at least 10^6 bacteria/mL, and S is the surviving bacteria from the above filter on the agar plate. The results of the experiments were presented in terms of log reductions. Log reduction is the difference between log(So) and log(S). As one example, if log(So)=6.2, and if there were 100 survivors, then the log(S)=2, and the log reduction was reported as 4.2.

solubility in water = format: physicochemical; conditions: for Concentration, Saturated: saturated aqueous germicidal solution, pH not adjusted

Compound: 4-pyridinyl-propanedial
- Log Reductions/mL ([1]; Saturated (˜2.3% w/v), 5 min): 4.0 log reductions/mL
- Concentration, Saturated (solubility in water): (˜2.3%) w/v %

Compound: O=CC(c1ccccc1)C(O)S(=O)(=O)[O-].[Na+] (stereo not drawn) [1-hydroxy-3-oxo-2-phenyl-propane-1-sulfonic acid, sodium salt]
- Log Reductions/mL ([1]; 0.6%, 5 min): 2.1 log reductions/mL
- Log Reductions/mL ([1]; 0.6%, 20 min): 2.5 log reductions/mL
- Log Reductions/mL ([1]; 0.6%, 25 min): 2.9 log reductions/mL
- Log Reductions/mL ([1]; 0.6%, 60 min, sodium salt): total kill
- Log Reductions/mL ([1]; 2.5%, 10 min, sodium salt): total kill

Compound: O=CC(C=O)c1cccc(C(=O)O)c1[N+](=O)[O-] [3-(1-formyl-2-oxoethyl)-2-nitro-benzoic acid]
- Log Reductions/mL ([1]; Saturated (˜2.1% w/v), 5 min): 4.0 log reductions/mL
- Concentration, Saturated (solubility in water): (˜2.1%) w/v %

Compound: O=Cc1ccc(Br)cc1C=O [4-bromo-phthalaldehyde]
- Log Reductions/mL ([1]; 0.1%, 10 minutes): 5.6 log reductions/mL
- Log Reductions/mL ([1]; 0.1%, 30 minutes): Total Kill

Compound: O=Cc1ccc(Cl)cc1C=O [4-chloro-phthalaldehyde]
- Log Reductions/mL ([1]; 0.2 w/v %, 5 min): 5.9 log reductions/mL
- Log Reductions/mL ([1]; 2.7 w/v % in 20% isopropanol, 5 min): Total Kill

Compound: O=Cc1ccc(F)cc1C=O [4-fluoro-phthalaldehyde]
- Log Reductions/mL ([1]; 0.25%, 60 minutes exposure): Total Kill

Compound: O=Cc1ccccc1C(O)S(=O)(=O)[O-].[Na+] (stereo not drawn) [(2-formyl-phenyl)-hydroxy-methane sulfonic acid, sodium salt]
- Log Reductions/mL ([1]; 9.1%, no dialdehyde, 5 min, listed as (2-formyl-phenyl)-hydroxy-methane sulfonate, sodium salt): confluent
- Log Reductions/mL ([1]; 9.1%, no dialdehyde, 5 min, listed as H-SULF, sodium salt): Confluent

Compound: O=Cc1cccc(C=O)c1 [IPA, isophthalaldehyde]
- Log Reductions/mL ([1]; 0.3%, dissolved in 20% isopropanol, 5 min): Confluent
- Log Reductions/mL ([1]; 0.3%, dissolved in 20% isopropanol, 5 min (Table 15)): Confluent
- Germicidal Efficacy [1]: Poor

Compound: O=Cc1ccccc1C=O [OPA, phthalaldehyde]
- Log Reductions/mL ([1]; 0.14%, 5 min): 4.8 log reductions/mL
- Log Reductions/mL ([1]; 0.28%, 5 min): 5.5 log reductions/mL
- Germicidal Efficacy [1]: Good
- solubility in water (solubility in water): about 5 % by weight

Compound: O=Cc1ccc(C=O)cc1 [TPA, terephthalaldehyde]
- Log Reductions/mL ([1]; 0.2%, dissolved in 20% isopropanol, 5 min): Confluent
- Germicidal Efficacy [1]: Poor

Compound: O=CC(C=O)c1ccccc1 [phenyl-propanedial]
- Log Reductions/mL ([1]; 0.2%, 60 min): 2.1 log reductions/mL
- Log Reductions/mL ([1]; 0.22%, 60 min): 2.1 log reductions/mL
- Log Reductions/mL ([1]; 0.3%, 30 min): 2.1 log reductions/mL
- Log Reductions/mL ([1]; 0.33%, 30 min): 2.1 log reductions/mL
- Log Reductions/mL ([1]; 0.4%, 30 min): 2.5 log reductions/mL
- Log Reductions/mL ([1]; 0.44%, 30 min): 2.5 log reductions/mL
- Log Reductions/mL ([1]; 0.66%, 5 min): <2.5 log reductions/mL
- Log Reductions/mL ([1]; 0.66%, 10 min): 2.5 log reductions/mL
- Log Reductions/mL ([1]; 0.7%, 10 min): 2.5 log reductions/mL
- Log Reductions/mL ([1]; ˜1%, 5 min (Table 15)): 4.5 log reductions/mL
- solubility in water (solubility in water): about 1%
